Measurements taken from ChEMBL document CHEMBL1147799, “An integrated in silico 3D model-driven discovery of a novel, potent, and selective amidosulfonamide 5-HT1A agonist (PRX-00023) for the treatment of anxiety and depression” (J Med Chem, 2006).

Columns and labels:
[1] = Half life in Sprague-Dawley rat at 3 mg/kg, po; type: ADME, organism-based; parameters: dose 3 mg/kg, route oral; conditions: in vivo
[2] = Oral bioavailability in Sprague-Dawley rat at 3 mg/kg, po and 1 mg/kg, iv; type: ADME, organism-based; conditions: in vivo
[3] = target: T1, 5-hydroxytryptamine receptor 1A (Homo sapiens, UniProt P08908); experiment: Activity against 5HT1A receptor by Gi-[35S]GTP-gamma-S binding assay; type: functional
T1 sequence (P08908 whole entry): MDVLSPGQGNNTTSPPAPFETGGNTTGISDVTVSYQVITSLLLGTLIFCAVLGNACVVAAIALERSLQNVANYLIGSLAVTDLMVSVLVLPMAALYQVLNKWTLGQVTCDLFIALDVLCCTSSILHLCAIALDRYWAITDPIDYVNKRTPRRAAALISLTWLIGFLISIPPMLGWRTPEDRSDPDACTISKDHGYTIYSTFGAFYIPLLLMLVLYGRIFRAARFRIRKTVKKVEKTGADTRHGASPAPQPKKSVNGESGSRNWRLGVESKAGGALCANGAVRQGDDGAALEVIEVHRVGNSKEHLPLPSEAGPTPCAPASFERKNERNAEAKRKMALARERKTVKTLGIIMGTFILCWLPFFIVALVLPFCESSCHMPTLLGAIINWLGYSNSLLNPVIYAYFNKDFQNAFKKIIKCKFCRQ

[4] = target: Sodium-dependent serotonin transporter (Homo sapiens, UniProt P31645); experiment: Binding affinity to 5HT transporter by radioligand binding assay
Chain of Sodium-dependent serotonin transporter (P31645 whole entry): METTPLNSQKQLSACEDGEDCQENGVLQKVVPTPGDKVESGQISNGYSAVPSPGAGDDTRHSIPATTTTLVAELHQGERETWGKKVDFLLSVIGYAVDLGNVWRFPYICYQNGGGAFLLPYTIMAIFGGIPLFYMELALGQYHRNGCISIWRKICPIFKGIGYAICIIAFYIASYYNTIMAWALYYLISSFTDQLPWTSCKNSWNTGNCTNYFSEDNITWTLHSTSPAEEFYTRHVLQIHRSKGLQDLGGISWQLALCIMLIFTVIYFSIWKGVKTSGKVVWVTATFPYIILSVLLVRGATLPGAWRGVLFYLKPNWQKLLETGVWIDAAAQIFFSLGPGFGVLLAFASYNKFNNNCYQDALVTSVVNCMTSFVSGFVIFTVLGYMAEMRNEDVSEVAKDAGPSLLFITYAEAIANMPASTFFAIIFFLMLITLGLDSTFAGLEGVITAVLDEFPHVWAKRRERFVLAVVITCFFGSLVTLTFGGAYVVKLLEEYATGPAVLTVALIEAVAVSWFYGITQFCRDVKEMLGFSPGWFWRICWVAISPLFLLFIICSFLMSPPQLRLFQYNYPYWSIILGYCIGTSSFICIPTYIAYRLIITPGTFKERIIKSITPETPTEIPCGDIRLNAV

[5] = target: 5-hydroxytryptamine receptor 7 (Homo sapiens, UniProt P34969)
Chain of 5-hydroxytryptamine receptor 7 (P34969 whole entry): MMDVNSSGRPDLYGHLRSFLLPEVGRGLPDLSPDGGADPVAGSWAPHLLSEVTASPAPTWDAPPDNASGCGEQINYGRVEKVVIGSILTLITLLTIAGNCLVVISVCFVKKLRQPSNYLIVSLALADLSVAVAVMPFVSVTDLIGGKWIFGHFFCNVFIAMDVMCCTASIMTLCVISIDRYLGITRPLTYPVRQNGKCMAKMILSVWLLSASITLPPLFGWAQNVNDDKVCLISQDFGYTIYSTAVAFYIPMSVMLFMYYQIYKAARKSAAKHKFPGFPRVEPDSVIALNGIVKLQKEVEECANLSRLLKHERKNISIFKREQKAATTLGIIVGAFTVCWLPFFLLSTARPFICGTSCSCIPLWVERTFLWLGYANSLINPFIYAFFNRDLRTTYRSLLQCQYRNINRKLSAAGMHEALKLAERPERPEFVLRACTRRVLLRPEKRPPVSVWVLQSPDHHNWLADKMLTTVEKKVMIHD
Description: Binding affinity to 5HT7 receptor by radioligand binding assay

[6] = target: 5-hydroxytryptamine receptor 2A (Homo sapiens, UniProt P28223)
Chain of 5-hydroxytryptamine receptor 2A (P28223 whole entry): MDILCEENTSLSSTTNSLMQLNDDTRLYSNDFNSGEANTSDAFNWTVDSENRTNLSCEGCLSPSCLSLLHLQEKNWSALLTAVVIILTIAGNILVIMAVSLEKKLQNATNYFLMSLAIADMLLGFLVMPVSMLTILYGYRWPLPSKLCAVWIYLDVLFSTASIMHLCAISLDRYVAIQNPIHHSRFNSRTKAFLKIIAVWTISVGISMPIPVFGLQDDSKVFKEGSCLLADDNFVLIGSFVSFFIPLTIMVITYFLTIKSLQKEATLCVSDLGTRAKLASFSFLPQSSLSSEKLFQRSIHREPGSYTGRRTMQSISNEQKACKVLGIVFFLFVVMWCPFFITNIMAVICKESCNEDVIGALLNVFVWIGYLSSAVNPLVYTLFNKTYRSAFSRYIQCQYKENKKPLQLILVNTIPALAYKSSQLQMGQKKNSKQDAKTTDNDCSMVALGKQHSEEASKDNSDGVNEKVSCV
Description: Binding affinity to 5HT2A receptor by radioligand binding assay

[7] = target: Alpha-2A adrenergic receptor (Rattus norvegicus, UniProt P22909); experiment: Displacement of [3H]RX 821002 from Adrenergic alpha-2a receptor in rat cerebral cortex cells; type: cell-based
Chain of Alpha-2A adrenergic receptor (P22909 whole entry): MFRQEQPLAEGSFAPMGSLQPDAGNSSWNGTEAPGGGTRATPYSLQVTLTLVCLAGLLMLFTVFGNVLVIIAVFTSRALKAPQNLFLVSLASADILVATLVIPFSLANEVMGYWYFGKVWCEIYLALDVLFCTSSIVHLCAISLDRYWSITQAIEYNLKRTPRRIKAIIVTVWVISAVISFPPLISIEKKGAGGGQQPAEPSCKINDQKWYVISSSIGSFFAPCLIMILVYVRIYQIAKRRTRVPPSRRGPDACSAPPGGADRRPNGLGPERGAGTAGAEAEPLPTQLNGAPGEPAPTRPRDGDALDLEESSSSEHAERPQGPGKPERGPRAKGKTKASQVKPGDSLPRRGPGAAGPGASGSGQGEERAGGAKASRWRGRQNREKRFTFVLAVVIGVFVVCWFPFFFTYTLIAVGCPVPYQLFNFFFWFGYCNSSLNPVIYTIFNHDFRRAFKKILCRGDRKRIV

[8] = target: T1, 5-hydroxytryptamine receptor 1A; experiment: Displacement of [3H]8-OH-DPAT from human 5HT1A receptor in HEK293 cells
[9] = target: T2, Adrenergic receptor alpha-1 (Rattus norvegicus, UniProt P15823+P23944+P43140); experiment: Displacement of [3H]prazosin from adrenergic alpha-1 receptor in rat cerebral cortex cells; type: cell-based
T2 sequence (P15823 whole entry): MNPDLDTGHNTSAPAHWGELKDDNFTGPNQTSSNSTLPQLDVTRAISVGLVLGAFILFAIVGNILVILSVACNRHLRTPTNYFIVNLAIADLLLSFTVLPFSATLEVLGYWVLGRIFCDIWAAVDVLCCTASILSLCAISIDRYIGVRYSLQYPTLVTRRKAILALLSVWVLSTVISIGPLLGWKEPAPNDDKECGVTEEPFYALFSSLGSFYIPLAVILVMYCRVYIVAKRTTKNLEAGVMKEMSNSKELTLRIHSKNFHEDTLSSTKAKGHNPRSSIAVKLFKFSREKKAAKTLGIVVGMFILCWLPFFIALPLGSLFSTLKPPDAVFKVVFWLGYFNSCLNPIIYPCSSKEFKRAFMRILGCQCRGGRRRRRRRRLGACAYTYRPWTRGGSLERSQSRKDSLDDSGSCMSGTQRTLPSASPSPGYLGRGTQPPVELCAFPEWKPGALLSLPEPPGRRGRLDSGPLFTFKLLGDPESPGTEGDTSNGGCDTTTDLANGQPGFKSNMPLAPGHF
T2 sequence (P23944 whole entry): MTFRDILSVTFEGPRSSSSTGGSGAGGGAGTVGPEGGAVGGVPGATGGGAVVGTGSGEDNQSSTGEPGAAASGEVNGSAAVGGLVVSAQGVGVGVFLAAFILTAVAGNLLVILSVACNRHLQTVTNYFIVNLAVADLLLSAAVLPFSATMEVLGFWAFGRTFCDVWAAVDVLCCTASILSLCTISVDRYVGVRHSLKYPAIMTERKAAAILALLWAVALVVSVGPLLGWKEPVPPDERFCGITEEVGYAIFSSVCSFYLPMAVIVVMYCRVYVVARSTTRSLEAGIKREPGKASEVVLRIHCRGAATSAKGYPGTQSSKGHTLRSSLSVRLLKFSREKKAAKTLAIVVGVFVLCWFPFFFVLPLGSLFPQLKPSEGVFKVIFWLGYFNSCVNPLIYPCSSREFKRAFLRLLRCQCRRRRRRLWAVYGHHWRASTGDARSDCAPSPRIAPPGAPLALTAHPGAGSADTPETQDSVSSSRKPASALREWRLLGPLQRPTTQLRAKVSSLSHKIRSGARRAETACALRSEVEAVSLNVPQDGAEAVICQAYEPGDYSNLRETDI
T2 sequence (P43140 whole entry): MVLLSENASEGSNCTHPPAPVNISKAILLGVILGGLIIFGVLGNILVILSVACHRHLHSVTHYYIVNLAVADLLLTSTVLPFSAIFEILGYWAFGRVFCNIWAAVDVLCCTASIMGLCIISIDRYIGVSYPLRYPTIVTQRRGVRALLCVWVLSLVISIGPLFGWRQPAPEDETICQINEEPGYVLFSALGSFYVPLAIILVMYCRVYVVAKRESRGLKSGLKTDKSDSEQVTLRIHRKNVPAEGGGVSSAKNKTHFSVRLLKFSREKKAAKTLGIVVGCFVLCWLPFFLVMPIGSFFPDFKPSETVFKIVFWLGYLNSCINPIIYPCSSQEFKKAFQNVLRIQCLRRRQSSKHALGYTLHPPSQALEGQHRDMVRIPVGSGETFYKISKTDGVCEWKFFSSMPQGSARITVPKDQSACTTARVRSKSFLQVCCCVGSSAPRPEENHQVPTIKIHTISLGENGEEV

[10] = target: T3, 5-hydroxytryptamine receptor 1A (Homo sapiens) (UniProt P08908); experiment: Activity against 5HT1A receptor relative to 5-HT by Gi-[35S]GTP-gamma-S binding assay; type: functional
T3 sequence (whole entry): T1 sequence (P08908 whole entry)

[11] = target: 5-hydroxytryptamine receptor 2B (Homo sapiens, UniProt P41595); experiment: Binding affinity to 5HT2B receptor by radioligand binding assay
Chain of 5-hydroxytryptamine receptor 2B (P41595 whole entry): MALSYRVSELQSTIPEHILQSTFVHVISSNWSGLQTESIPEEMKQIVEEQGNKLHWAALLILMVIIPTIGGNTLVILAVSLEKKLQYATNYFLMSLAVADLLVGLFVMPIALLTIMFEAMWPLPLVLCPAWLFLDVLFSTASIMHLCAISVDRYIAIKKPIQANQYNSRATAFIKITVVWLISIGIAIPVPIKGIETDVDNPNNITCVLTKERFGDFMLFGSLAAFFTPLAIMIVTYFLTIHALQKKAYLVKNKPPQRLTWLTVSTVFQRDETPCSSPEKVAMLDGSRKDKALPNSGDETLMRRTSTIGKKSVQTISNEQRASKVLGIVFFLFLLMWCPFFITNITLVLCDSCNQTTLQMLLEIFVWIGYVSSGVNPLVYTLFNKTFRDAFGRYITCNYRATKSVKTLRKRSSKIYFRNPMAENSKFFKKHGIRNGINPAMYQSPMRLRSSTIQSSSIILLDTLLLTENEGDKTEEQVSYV

Structure (SMILES): COc1ccccc1N1CCN(CCCCNS(=O)(=O)c2ccc(C)cc2)CC1
- half-life [1]: 1 h
- bioavailability [2]: 2%
- EC50 [3]: 21 nM
- Ki [4]: 200 nM
- Ki [5]: 30 nM
- Ki [6]: 490 nM
- Ki [7]: 12 nM
- Ki [8]: 1 nM
- Ki [9]: 6 nM
- Activity [10]: 65%
- Ki [11]: 53 nM
